Source: US10696660B2, “Rho kinase inhibitors” (priority 2012, dated 2020)
“Also recorded” adds a separate entry of the source.

Tests used:
[1] = system: human CD4^+ T cells; experiment: proliferation of T cells in response to TCR stimulation in vitro; assay type: cell-based; details: listed as KD025
[2] = system: STAT3; experiment: STAT3 phosphorylation in T cells; assay type: cell-based, human
[3] = system: CD4^+ T cells from RA patients; experiment: cytokine secretion ex vivo by CD3/CD28 stimulated CD4+ T cells from RA patients; assay type: cell-based, human; details: listed as KD025
[4] = system: TGF-β-induced STAT3, MLC and SMAD2/3 phosphorylation; experiment: TGF-β-induced phosphorylation of STAT3, MLC and SMAD2/3 in Tregs; assay type: cell-based
[5] = system: PBMCs; experiment: ex vivo anti-CD3/CD28 stimulated cytokine production in PBMCs isolated from treated patients; design: species or system human; details: 120 mg/day, days 1 and 8-14

CC(C)NC(=O)COc1cccc(-c2nc(Nc3ccc4[nH]ncc4c3)c3ccccc3n2)c1 [SLx-2119]
proliferation in response to TCR stimulation [1]: inhibits; also recorded: down-regulated their ability to proliferate
STAT3 phosphorylation ([2]; Th17-skewing conditions 5 days, then treated 3 hours): STAT3 phosphorylation was reduced
phosphorylation of STAT3 ([2]; pre-treatment, then anti-CD3/CD28 stimulation): reduced phosphorylation of STAT3
phosphorylation of STAT3, IFR4 and RORγT ([2]; separate experiment (FIG. 9C)): reduced phosphorylation
phosphorylation of STAT3 ([2]; two different experimental designs, listed as KD025): inhibits STAT3 phosphorylation; also recorded: significantly down-regulates
secretion of IFN-γ [3]: inhibits; also recorded: significantly down-regulated
secretion of IL-17 [3]: inhibits; also recorded: significantly down-regulated
secretion of IL-21 [3]: inhibits; also recorded: significantly down-regulated
TGF-β-induced STAT3 and MLC phosphorylation [4]: down-regulates
induction of IL-17 secretion in PBMCs [5]: significantly inhibited in PBMCs isolated from four of five patients
induction of IL-21 secretion in PBMCs [5]: significantly inhibited in PBMCs from all five patients
